Experimental data: patent US8058228B2, “Leptin peptide antagonists” (Boston Biomedical Research Institute, priority 2004, dated 2011)
Entries after “also recorded” stand apart in the source; their conditions may differ.

Test system: OB-R
Experiment: IL-1R tl expression by rabbit endometrial cells (immunocytochemistry, Western blot)
Type: cell-based
Details: for effect on leptin up-regulation of IL-1R tl expression: LPA-2 30 and 120 nM, LPA-2Sc 120 nM, antibody 20 μg/ml
Experimental: Rabbit endometrial cells (5×10^5 cells/well) were cultured for 5-9 days in DMEM-MCDB105 (3:1) medium containing 10% fetal bovine serum (FBS), 5 μg/ml insulin, 1% amphopthericin B, 100 μg/ml streptomycin and 100 U/ml penicillin until confluent layers were obtained. The cells were washed twice with 100 mM phosphate saline buffer (PBS) −2% BSA (w/v), pH 7.2 and cultured for an additional 2 days in the same medium but without FBS (basal medium). This procedure was performed to reduce any effects of cytokines from FBS on the phosphorylation rate of Stat3 as well as the expression of other cytokines and their receptors. Cells were washed as described before and cultured in basal medium containing leptin (0-10 nM), OB-R antibody (1-20 μg/ml) and/or LPA-2 peptides (0-300 nM). Cultures were stopped at 24 h and the cells were used for immunocytochemistry, binding studies and western blot analysis. The conditioned media were collected, lyophilized and stored at −80° C. for ELISA determinations. Duplicate wells were run for each treatment and the experiments repeated at least three times with different cell preparations from different rabbits. Controls were the same cellular preparations cultured in basal medium containing non-specific goat IgGs and LPA-2Sc.
The rabbit endometrial cells were cultured as described above in duplicate on 8-well glass-bottom culture plates (Nalgene Nunc International, Naperville, Ill.) and fixed with methanol at −20° C. for 20 min for immunocytochemical studies. All the antibodies tested were diluted in PBS-2% BSA (w/v; buffer A).
Anti IL-1R tl (1 μg/ml), anti LIF-R (2 μg/ml), anti vimentin (1:50), anti cytokeratin (1:50) and anti p-Stat3 (1 μg/ml) antibodies were used to assess the expression of the respective antigens by rEEC and rESC cultures. After incubation with primary antibodies the cells were incubated with a streptavidin-biotin-alkaline phosphatase system according to the manufacturer directions (Vectastain, ABC-AP kit, Vector Laboratories, Burlingame, Calif.) and counter-stained with hematoxylin (Dako). Negative controls included cell preparations in which the primary antibodies were substituted by irrelevant species matched IgGs.
After culture in the presence of leptin, LPAs or antibodies, the endometrial cells were washed with ice-cold PBS and lysed by homogenization on ice with lysis buffer [[…] Tris, pH 7.4, containing […] NaCl, 2 mM EDTA, 10% glycerol, 50 mM β-glycerophosphate, […] NaF, 1% Nonidet P-40, 2 mM phenyl-methylsulfonyl fluoride, 2 mM sodium orthovanadate, 100 μM antipain, 0.1 mg/ml trypsin inhibitor and protease cocktail inhibitor 1:50 (Sigma)]. […] Protein concentrations were determined using the Bradford protein assay (BioRad Laboratories Inc., Hercules, Calif.). […]

Substance	effect on basal expression of IL-1R tl (rESC, LPA-2 120 nM, Western blot)	effect on leptin up-regulation of IL-1R tl expression (rESC, leptin 3 nM)	IL-1R tl expression after leptin (rabbit endometrial cells, leptin 3 nM)
SRNVIQISNDLENLRDLLHVLAFSKS [LPA-2, 26 amino acid peptide, residues 70-95 of helix III of the human leptin molecule; leptin peptide antagonist]	inhibited the basal expression of IL-1R tl	completely abolished; also recorded: significantly decreased	
VAEVLNRSDLIQRISFSLDLNNSKLH [LPA-2Sc, scrambled version of LPA-2, negative control, reference compound]		did not alter the leptin effect on IL-1R tl expression	
leptin: human recombinant leptin (R&D Systems), OB-R ligand used as stimulus			substantially up-regulates IL-1R tl expression
